This note sets out measurements from US7566453B2, “Methods for treating melanomas” (Chugai Seiyaku Kabushiki Kaisha, priority 1998, dated 2009).

Data set [1] in a line: Body weight change (toxicity) of myeloma-implanted mice, Example 3. Type of data set: in vivo, SCID mouse. The note with it: melphalan administration (FIG. 16). The procedure:
(§1) For evaluation of antitumor effects, a xenograft model animal that was produced by implanting KPMM2 cells via the tail vein was used as in Working example 2. Thus, single-cell suspensions which were prepared by passing through a mesh KPMM2 cells that were minced after having been maintained in vivo were implanted at 0.2 ml per mouse via the tail vein (6×10^6 cells per mouse). The day when the cells were implanted was set at day 0.
With regard to anti-human IL-6 receptor antibody hPM-1, a stock solution that had been preserved at 6.57 mg/ml was diluted in sodium phosphate buffer to make each solution of 5, 1, 0.2, and 0.04 mg/ml. They were given to mice at 0.1 ml per 10 g body weight of mouse via the tail vein on day 14 to create the 50, 10, 2, and 0.4 mg/kg administration groups. The control group received the same buffer without antibody in a similar manner. […]
The experiment was carried out on the following 10 groups: (A) the melphalan and the antibody non-administration group; (B) the melphalan single-drug administration group; (C) the each dose of antibody single-drug administration group , 4 groups (50, 10, 2, 0.4 mg/kg weight); and, (D) the melphalan and the each dose of antibody combined administration group, 4 groups (50, 10, 2, 0.4 mg/kg weight). […] The amount of M protein was calculated as described in Example 2.

The nature of data set [2]: Body weight change (toxicity) of myeloma-implanted mice, Example 2. In kind it is in vivo, SCID mouse. To be noted: melphalan administration (FIG. 10). The text has this: For evaluation of antitumor activity, a xenograft model was used. Thus, KPMM2, a human myeloma cell line derived from ascites of a patient with multiple myeloma was implanted to a male SCID mouse (FOX CHASE C. B17/Icr-Scid Jcl, purchased from Nippon Klea) via the tail vein. At this time, the tumor cells grow in the bone marrow and come to produce myeloma protein (M protein) in the peripheral blood. Furthermore, this model system is very close to an actual clinical condition in that it develops major symptoms of multiple myeloma in humans such as bone disorders, elevated blood calcium, and the like.
With regard to anti-human IL-6 receptor antibody, a stock solution that had been preserved at 12.1 mg/ml was diluted in sterile phosphate buffer to make 5 mg/ml. This was given to mice at 0.2 ml per animal via the tail vein on day 8 (1 mg per mouse). The control group received sterile phosphate buffer containing no antibody in a similar manner.
Melphalan (L-PAM, manufactured by Sigma Chemical Co.) that was suspended at 0.3 or 0.1 mg/ml in 0.2% CMC (carboxymethylcellulose) solution in water was used. This was given orally at 0.1 ml per 10 g body weight of mouse (3 or 1 mg/kg weight) for 5 consecutive days starting on day 1. The control group received 0.2% CMC solution in water containing no melphalan in a similar manner. […]

In the next data set the test system is KPMM2 cells. Briefly: Human myeloma cell-implanted SCID mouse system, dose dependency of antibody (Example 3): survival, serum M protein. To be noted: for Life-elongation ratio (%): vs drug non-administration group; for Survival period: mean±standard error. In kind it is in vivo. As for the experimental part: as §1
They were given to mice at 0.1 ml per 10 g body weight of mouse via the tail vein on day 14 to create the 50, 10, 2, and 0.4 mg/kg administration groups.
Melphalan (L-PAM, manufactured by Sigma Chemical Co.) was used as a suspension of 0.1 mg/ml in 0.2% CMC solution in water. This was given orally at 0.1 ml per 10 g body weight of mouse (1 mg/kg weight) for 5 consecutive days starting on day 7.
The experiment was carried out on the following 10 groups: (A) the melphalan and the antibody non-administration group; (B) the melphalan single-drug administration group; (C) the each dose of antibody single-drug administration group , 4 groups (50, 10, 2, 0.4 mg/kg weight); and, (D) the melphalan and the each dose of antibody combined administration group, 4 groups (50, 10, 2, 0.4 mg/kg weight). The non-administration group included 12 mice per group, the melphalan administration group 6 mice per group, whereas each of the other groups included 7 mice. Furthermore, mice of the same lineage and purchased on the same day were raised without implanting a tumor, and the animals were used as negative control for M protein detection. The amount of M protein was calculated as described in Example 2.
Indices of the drug efficacy included the survival period, and the amount of M proteins on day 30, day 35, and day 42. For analysis of the survival period, a generalized Wilcoxon's test (SPSS for Windows ver. 6, SPSS inc.) was used. A significance level of 5% or lower was considered to be significant. For analysis of the amount of M protein in the serum, the ANOVA (Analysis of variance, SPSS for windows ver. 6, SPSS inc.) was first conducted. After confirming significance, Bonferroni method (SPSS for windows ver. 6, SPSS inc.) was used, and a significance level of 5% or lower was considered to be significant.

Data set [3] has as its target T1, human IL-6 receptor (Homo sapiens, UniProt P08887).
T1 sequence (P08887 20-468): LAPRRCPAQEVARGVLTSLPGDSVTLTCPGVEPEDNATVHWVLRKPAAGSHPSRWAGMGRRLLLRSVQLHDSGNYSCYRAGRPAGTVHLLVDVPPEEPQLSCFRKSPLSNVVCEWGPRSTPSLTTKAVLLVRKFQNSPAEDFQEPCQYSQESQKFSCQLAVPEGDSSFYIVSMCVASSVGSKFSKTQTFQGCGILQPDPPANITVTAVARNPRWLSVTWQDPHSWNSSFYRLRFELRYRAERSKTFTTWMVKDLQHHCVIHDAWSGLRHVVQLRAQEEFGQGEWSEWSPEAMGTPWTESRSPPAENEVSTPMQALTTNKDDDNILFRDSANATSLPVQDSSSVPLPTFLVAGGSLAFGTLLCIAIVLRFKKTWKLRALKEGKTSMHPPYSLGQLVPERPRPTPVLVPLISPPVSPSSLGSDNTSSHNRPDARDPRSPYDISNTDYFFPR
Kind of data set: ELISA of binding to human IL-6 receptor. The source says: (§2) In order to express genes of L chain and H chain of the reshaped human PM-1 antibody thus constructed, DNA encoding the L chain or the H chain was separately inserted into a vector containing the human elongation factor 1α (HEF-1α) promoter, and a vector expressing the L chain or the H chain of the reshaped human PM-1 (hPM-1) antibody was constructed. By simultaneously inserting these two expression vectors into CHO cells, a cell line that produces reshaped human PM-1 antibody (hPM-1) was established.
(In general: ELISA stands for enzyme-linked immunosorbent assay.)

For data set [4], the target named is T1, human IL-6 receptor. Kind of data set: Inhibition of binding of human IL-6 to human IL-6 receptor. To be noted: compared with mouse antibody and chimeric antibody.
Source text: as §2

In the case of `NC(Cc1ccc(N(CCCl)CCCl)cc1)C(=O)O` (stereo not shown) [melphalan], the “toxicity (inhibition of body weight gain)” value in data set [1] was “caused toxicity to mice and inhibited body weight gain”; in data set [2] it was “caused toxicity in mice and inhibited body weight gain”. Also, in the data set with KPMM2 cells (melphalan 1 mg/kg orally 5 days from day 7, no antibody), the “Life-elongation ratio (%)” value amounted to 142%. The molecule further had a Survival period in the data set on KPMM2 cells (melphalan 1 mg/kg orally, 5 consecutive days from day 7, no antibody) of 58.2 ± 1.8. Moreover, in the data set on KPMM2 cells (melphalan 1 mg/kg, no antibody, melphalan single-drug administration group as control), the “Life-elongation ratio (%), value in parentheses” value is reported as 100%. Besides, the “life elongation effect (survival period)” value in the data set on KPMM2 cells (melphalan alone, 1 mg/kg) is “significant life elongation effect”. Besides, the “amount of M protein in the serum on day 30” value with KPMM2 cells (melphalan single-drug administration, 1 mg/kg (FIG. 11)) is “significantly inhibited”.

As for “hPM-1: reshaped human PM-1 antibody: CDRs of mouse anti-IL-6 receptor antibody PM-1 grafted to human antibody, produced in CHO cells”, the “ability to bind to human IL-6 receptor” value in the data set with human IL-6 receptor [3] is reported as “confirmed by ELISA”. Further, the “life elongation effect (survival period)” value in the data set on KPMM2 cells (antibody single-drug administration, 50, 10, 2, 0.4 mg/kg) is listed as “none of the doses in the antibody single-drug administration group gave a significant life elongation effect”. Further, the “amount of M protein in the serum on day 30” value in the data set with KPMM2 cells (antibody single-drug administration, 50, 10, 2, 0.4 mg/kg on day 14 (FIG. 11)) is listed as “none of the doses significantly inhibited the amount of M protein”. For the same molecule, the “Life-elongation ratio (%)” value in the data set on KPMM2 cells (hPM-1 0.4 mg/kg on day 14, CMC control) worked out at 98%; in the data set with KPMM2 cells (hPM-1 2 mg/kg on day 14, CMC control), 101%; in the data set with KPMM2 cells (hPM-1 10 mg/kg on day 14, CMC control), 99%; in the data set with KPMM2 cells (hPM-1 50 mg/kg on day 14, CMC control) it was 101%. The Survival period with KPMM2 cells (hPM-1 0.4 mg/kg via the tail vein on day 14, CMC control) stood at 40.3 ± 1.2; in the data set with KPMM2 cells (hPM-1 2 mg/kg via the tail vein on day 14, CMC control) it was 41.4 ± 1.3; in the data set with KPMM2 cells (hPM-1 10 mg/kg via the tail vein on day 14, CMC control), 40.4 ± 1.7; with KPMM2 cells (hPM-1 50 mg/kg via the tail vein on day 14, CMC control) it was 41.6 ± 1.0. The “inhibition of the binding of human IL-6 to human IL-6 receptor” value with human IL-6 receptor [4] was “inhibited the binding of human IL-6 to human IL-6 receptor in a similar manner to that of mouse antibody and chimeric antibody”.
